Experimental data as given in paper PMC12881674, “Activation of TRPV3 channels in bladder cancer cells stimulates ATP release” (Molecular Pharmacology, 2025).

Key:
rat TRPV1 = target: T1, rat TRPV1 (Rattus norvegicus, UniProt O35433); assay: fluo-4 Ca2+ assay selectivity, HEK cells expressing rat TRPV1; assay type: cell-based; details: concentrations up to 50 μM
T1 construct: expressed in transfected cells; host or cells: HEK293
From the text: KU-19-19 (DSMZ no. ACC 395), CAL-29 (DSMZ no. ACC 515), 647-V (DSMZ no. ACC 414), RT-4 (DSMZ no. ACC 412), and RT-112 (DSMZ no. ACC 418) bladder cancer cell lines were obtained from the Leibniz Institute DSMZ (German Collection of Microorganisms and Cell Cultures). Human TRPV3 (NM_145068, purchased from OriGene) and mouse TRPV3 (NM_001371006), rat TRPV1, mouse TRPV2, mouse TRPV4, human TRPM2, human TRPM8, and human TRPA1 were stably transfected in HEK293 cells as described before.[27] […]
All fluorometric Ca^2+ assays were performed in HBS buffer at room temperature. […] For the primary compound screening and the generation of concentration-response analyses, a robotic liquid handling station (Freedom Evo 150; Tecan) with a built-in custom-made fluorescence plate imager was used. […] Fluorescence was excited using a 470-nm light-emitting diode, and emitted light was imaged through a 515-nm–long pass filter with a cooled Zyla 5.5 camera (Andor). Fluorescence was recorded and processed under the control of the μ-Manager 2.0 gamma software (https://micro-manager.org.[28]). After recording baseline fluorescence, compounds were dispensed into the wells via the liquid handling device. […] For further analysis, fluorescence signals were calculated for each well, corrected for background intensities and normalized to the initial signals. […]

KU-19-19 cells = assay: ATPlite luminescence assay of extracellular ATP; assay type: cell-based, human; details: 50 μM AV3-1, 30 minutes
Experimental: KU-19-19 cells (1 × 10^5 per well) were plated in 24-well plates and cultured for 24 hours. Medium was removed, and wells were washed with PBS before adding 1 mL of drugs dissolved in PBS. After 30 minutes, 100 μL of the supernatant was transferred to a 96-well plate. ATP content was measured using the ATPlite luminescence ATP assay (Revvity, catalog number 6016943) following manufacturer’s instructions. Luminescence was recorded using a Polarstar Omega reader and normalized to control wells without addition of drugs.
Fig. 4 TRPV3 activation by AV3-1 was enhanced by cholesterol supplementation and causes ATP release in KU-19-19 bladder cancer cells. […] Current amplitudes were recorded using voltage ramps from −100 mV to +100 mV (500-millisecond duration) and expressed as current density (pA/pF) measured at +100 mV and −100 mV. (C) Quantification of current densities (pA/pF) at −100 mV (inward current) and +100 mV (outward current) at the time points (1, 2) as indicated in (A, B). […] Statistical significance was determined using Kruskal-Wallis ANOVA followed by Conover test; ∗P < .05. […] Inset: Box-and-whisker plots of AV3-1 potencies under control conditions (open box) and following cholesterol supplementation (gray box), derived from individual concentration-response fits and expressed as pEC50 (-log10(EC50 [M])). […]

T1 sequence (O35433 whole entry): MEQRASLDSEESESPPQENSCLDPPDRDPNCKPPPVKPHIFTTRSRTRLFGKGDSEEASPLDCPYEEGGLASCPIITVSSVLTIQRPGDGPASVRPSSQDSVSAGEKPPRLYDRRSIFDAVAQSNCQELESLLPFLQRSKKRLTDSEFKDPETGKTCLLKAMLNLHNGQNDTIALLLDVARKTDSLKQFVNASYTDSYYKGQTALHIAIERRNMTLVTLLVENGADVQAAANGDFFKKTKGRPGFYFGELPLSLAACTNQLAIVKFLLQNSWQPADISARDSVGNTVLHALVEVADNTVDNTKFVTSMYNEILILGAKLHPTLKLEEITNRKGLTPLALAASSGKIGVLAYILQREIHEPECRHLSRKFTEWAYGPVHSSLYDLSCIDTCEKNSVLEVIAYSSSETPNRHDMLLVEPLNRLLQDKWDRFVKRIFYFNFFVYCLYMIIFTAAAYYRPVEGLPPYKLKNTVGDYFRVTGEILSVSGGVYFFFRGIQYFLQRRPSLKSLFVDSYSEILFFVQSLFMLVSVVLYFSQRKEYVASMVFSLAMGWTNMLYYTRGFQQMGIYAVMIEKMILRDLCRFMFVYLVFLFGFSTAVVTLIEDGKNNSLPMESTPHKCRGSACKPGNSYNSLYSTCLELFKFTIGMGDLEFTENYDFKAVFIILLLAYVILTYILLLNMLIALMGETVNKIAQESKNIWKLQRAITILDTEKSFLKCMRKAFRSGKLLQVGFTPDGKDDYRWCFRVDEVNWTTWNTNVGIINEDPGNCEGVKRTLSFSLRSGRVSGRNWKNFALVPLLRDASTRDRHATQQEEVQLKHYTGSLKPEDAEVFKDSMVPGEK

COC(=O)C12CN(Cc3ccccc3)CC1(C(=O)OC)CN(Cc1ccccc1)C2 (centres unmarked) [AV3-1]
effect on TRPV1 (rat TRPV1): only a minor activation
ATP release compared with untreated control cells (KU-19-19 cells): statistically significant increased ATP release
